The text below walks through data of US12605396B2, “Methods of treating mastitis with an orthosomycin antimicrobial compound” (Intervet Inc., priority 2020, dated 2026).

Test [1] concerns S. aureus. In words: MIC in full cream UHT milk with alamar Blue. In kind it is cell-based, Staphylococcus aureus. Particulars: for S. aureus MIC, milk: individual S. aureus isolates, in µg/mL. As to the method: For MIC determination in milk, the in vitro activity was determined by measuring the minimum inhibitory concentrations (MIC) according to CLSI document VET01-A4 [1] using full cream UHT milk as test medium. About 2 h before the end of the incubation 10 μL of alamar Blue® was added to each well of the microdilution trays, resulting in a final concentration of 10% of alamar Blue®. Blue color of the medium indicated no living cells (no bacterial growth) red/pink to white color of the medium indicated living cells (bacterial growth). The MIC results were interpreted according to the CLSI document VET01-S3 [2].
On the technique in general: Alamar Blue is a resazurin reagent that responds to reducing activity.

For test [2], the system named is S. aureus. The test can be described thus: MIC in bacteriological broth (CLSI VET01-A4). In kind it is cell-based, Staphylococcus aureus. Particulars: for S. aureus MIC, CAMHB: bacteriological broth (CAMHB), individual S. aureus isolates; for Activity against S. aureus isolates in bacteriological broth: different S. aureus isolates. On the procedure:
Minimal inhibitory concentrations (MIC) were determined in bacteriological broth according to Clinical and Laboratory Standard Institute (CLSI) guideline VET01-A4 [1]. The MIC results were interpreted according to the CLSI document VET01-S3 [2].

Values after ≈ are worked out from the molar mass of the structure shown. Values joined by “and” are separate entries in the source; they are usually repeats but may differ in a detail not shown here. Equal values may be shown once. “Also recorded” adds a separate entry of the source.

With `CC[C@@H](C(=O)[C@@H](C)[C@@H](O)[C@H](C)CCc1ccc(C)c(O)c1C(=O)O)[C@H]1O[C@](CC)([C@H]2CC[C@](O)(CC)[C@H](C)O2)C[C@@H]1C` [Lasalocid, lasalocid], in the test with S. aureus [1], the “Activity in milk” value was “no activity; also recorded: lost any activity” and the “S. aureus MIC, milk” value is above 32. For the same compound, in the test on S. aureus [2], the “S. aureus MIC, CAMHB” value was 0.25 (3×) and 1 (4×) and 0.5; the “Activity against S. aureus isolates in bacteriological broth” value (“Activity … in bacteriological broth” below) is given as “active”.

With `CC[C@@]1([C@@H]2O[C@@H]([C@H]3O[C@@](O)(CO)[C@H](C)C[C@@H]3C)C[C@@H]2C)CC[C@H]([C@]2(C)CC[C@]3(C[C@H](O)[C@@H](C)[C@@H]([C@@H](C)[C@@H](OC)[C@H](C)C(=O)O)O3)O2)O1` [Monensin, monensin], in the test with S. aureus [1], the “Activity in milk” value is given as “no activity; also recorded: lost any activity” and the “S. aureus MIC, milk” value is listed as above 32. Besides, in the test with S. aureus [2], the “S. aureus MIC, CAMHB” value was 0.25 (2×) and 2 (6×); the “Activity … in bacteriological broth” value is “active”.

As a reminder, the MIC90 is the lowest concentration that inhibits either 90% of growth or 90% of the strains tested, depending on the study. A low value points to greater potency. As for `CC1(C)S[C@@H]2[C@H](NC(=O)Cc3ccccc3)C(=O)N2[C@H]1C(=O)O` [Penicillin G, penicillin G], in the test on S. aureus [1] (S. aureus (n = 20)), the “Distribution of MIC values: isolates with MIC 0.125 μg/ml” value is on record as 0, the “Distribution of MIC values: isolates with MIC 0.25 μg/ml” value was 0, the “Distribution of MIC values: isolates with MIC 0.5 μg/ml” value is on record as 0 and the “Distribution of MIC values: isolates with MIC 1 μg/ml” value is on record as 1. In addition, in the test with S. aureus [1] (S. aureus (n = 20)), the “Distribution of MIC values: isolates with MIC 2 μg/ml” value amounted to 0, the “Distribution of MIC values: isolates with MIC 4 μg/ml” value came to 0, the “Distribution of MIC values: isolates with MIC 8 μg/ml” value is on record as 2 and the “Distribution of MIC values: isolates with MIC 16 μg/ml” value came to 1. Also, in the test with S. aureus [1] (S. aureus (n = 20)), the “Distribution of MIC values: isolates with MIC 32 μg/ml” value was found to be 1, the “Distribution of MIC values: isolates with MIC 64 μg/ml” value is recorded as 0, the “Distribution of MIC values: isolates with MIC >64 μg/ml” value was found to be 1 and the “Distribution of MIC values: isolates with MIC ≤0.063 μg/ml” value was found to be 14. The same compound registered an MIC90 in the test with S. aureus [1] (S. aureus (n = 20)) of 16 µg/mL (≈ 47.8 µM).

Take `CC[C@@H](C(=O)[C@@H](C)[C@@H](O)[C@H](C)[C@@H]1O[C@@H]([C@@H](CC)C(=O)O)CC[C@@H]1C)[C@H]1O[C@]2(C=C[C@@H](O)[C@]3(CC[C@@](C)([C@H]4CC[C@](O)(CC)[C@H](C)O4)O3)O2)[C@H](C)C[C@@H]1C` [Salinomycin, salinomycin]: in the test with S. aureus [1], the “Activity in milk” value is “no activity; also recorded: lost any activity” and the “S. aureus MIC, milk” value is above 32. In the test with S. aureus [2], the “S. aureus MIC, CAMHB” value was 0.25 (2×) and 1 and 0.5 (5×); the “Activity … in bacteriological broth” value is on record as “active”.
